Experimental data: PMC8868346, “Novel Series of Dual NRF2 Inducers and Selective MAO-B Inhibitors for the Treatment of Parkinson’s Disease” (Antioxidants, 2022)
Where two headings read alike, the source gives them in different places.

What was measured:
MAO-B [1] = details: cited from earlier work
[2] = tested on: Mixed primary glial cultures; assay: Cytotoxicity in mixed primary glial cultures (MTT); details: Sprague-Dawley, rat
Procedure: Mixed primary glial cultures were obtained from cerebral cortex of 2–5-day-old Sprague–Dawley rats. Blood vessels and meninges were first removed in Hank’s balanced salt solution (HBSS) and then forebrains were dissociated in DMEM/F12 medium. After mechanical dissociation, filtering, and centrifugation at 800 rpm for 10 min, cells were plated at a density of 30,000 cells/well in DMEM/F12 medium with 20% (v/v) FBS and 1% penicillin/streptomycin (10,000 units). […] After 5 days, medium was substituted by DMEM/F12 medium with 10% (v/v) FBS. Cells were cultured for 7–10 days before treatment.
(§1) Basal absorbance was set to 100% and results were normalized to basal conditions.
(§2) Cytotoxicity. LD50 values in several cell cultures employed
(§3) Table S2. Cytotoxicity elicited by 10-18 compounds in SH-SY5Y, AREc32 and mixed pr imary glial cultures. Viability was measured as MTT reduction in presence of increasing concentrations of der ivatives. LD50 values were calcula ted from dose-response curves. Data are expr essed as mean ± SEM of at least 3 independent experiments.
(§4) 1.3. PAMPA control compounds (BBB permeability)
(§5) Table S3. Pr ediction of the BBB passive permeability of control compounds

SH-SY5Y cells [3] = assay: Neuroprotection in SH-SY5Y against 6-hydroxydopamine (MTT); type: cell-based, human; details: 6-OHDA 100 µM; compound 0.1 µM, 24 h pre- and 24 h co-incubation
Procedure: (§6) Cells were seeded at a density of 60,000 cells/well in 96-well transparent plates for 24 h. Then cells were pre-incubated with the corresponding compound at 0.1 μM. After 24 h, the medium was removed and replaced with 1% (v/v) FBS media containing the corresponding compound at 0.1 µM and the selected toxic stimuli, namely a mixture of rotenone and oligomycin A (R/O; 30/10 μM, respectively; Sigma–Aldrich, Spain) or 6-hydroxydopamine (100 µM; Sigma–Aldrich, Spain). […].

IL-1β = IL-1β levels by ELISA in LPS stimulated primary mixed glial cultures; type: cell-based, rat; details: compound 10 μM; LPS 1 µg/mL 18 h
Procedure: Cells were cultured for 7–10 days before treatment.
Primary glial cells were pre-treated with compounds at the desired concentration for 24 h. Then, treatments were removed and glial cells were incubated with lipopolysaccharide (LPS, 1 μg/mL; Sigma–Aldrich, Spain) in the presence of each compound at the desired concentration for 18 h. Nitrite production was then assessed by modified Griess assay. Briefly, 150 µL of each sample was mixed with 75 µL of 4,4′-diamino-diphenylsulfone (Dapsone) and 75 µL of N-(1-naphthyl)ethylenediamine (Neda). The mixture was incubated at room temperature for 5 min. […] Data were normalized to basal conditions, setting this value as 100% of nitrite production. EC50 values were calculated from dose–response curves obtained from representing percentage of nitrites reduction vs. compound concentration.
Supernatants obtained from mixed primary glial cell cultures were used to determine IL-1β levels by quantitative ELISA kits (Preprotech, R&D Systems-bioNova, Madrid, Spain) following the manufacturer’s instructions. Commercial solution of IL-1β was used to generate a standard curve for sample quantification. Absorbance was measured in a microplate reader SPECTROstar Nano (BMG Labtech) at 405 with 650 nm correction.

SH-SY5Y cells [4] = assay: Neuroprotection in SH-SY5Y against rotenone/oligomycin A (MTT); type: cell-based, human; details: compound 0.1 µM, 24 h pre- and 24 h co-incubation
Procedure: as §6

AREc32 = tested on: AREc32
Procedure: AREc32 cells, shared by CR Wolf, were grown in Dulbecco’s modified Eagle medium (DMEM) with GlutaMAX (Gibco, Invitrogen, Madrid, Spain), supplemented with 10% (v/v) filtrated fetal bovine serum (FBS; Gibco, Invitrogen, Madrid, Spain), 1% of antibiotics penicillin-streptomycin, and geneticin (0.8 mg/mL G418; Gibco, Invitrogen, Madrid, Spain). […] They were recovered by centrifugation at 800 rpm for 10 min. Cells were used from the third to twelfth passage.
as §1, §2, §3, §4, §5

NRF2 = NRF2 induction, luciferase activity in AREc32 reporter cells; type: cell-based, human; details: Homo sapiens; AREc32 cells, 24 h; concentration required to double luciferase activity compared to basal; read-out: CD (µM) NRF2 Induction
Procedure: Cells were used from the third to twelfth passage.
AREc32 cells were stably transfected with the plasmid pGL-8xARE that implements 8 copies of the antioxidant response element (ARE) sequences followed by luciferase reporter gen. Therefore, NRF2 induction can be related to the activation of ARE sequences by measuring luciferase activity in terms of luminescence production. For NRF2 induction experiments, cells were plated in 96 white flat bottom well plates (20,000 cells/well). After 24 h, cells were incubated with selected compounds at the desired concentrations in duplicates for 24 h. The Luciferase Assay System (Promega E1500) was used according to provider protocol and luminescence was quantified in an Orion II microplate luminometer (Berthold, Germany). Fold induction of luciferase activity was normalized to basal conditions. Data were expressed as CD values, which means the concentration needed to duplicate the luciferase activity compared to basal conditions. CD values were calculated from dose–response curves fitted by non-linear regression for each compound after logarithmic transformation of the data using GraphPad Prism 8.0 software.

SH-SY5Y = details: human
Procedure: They were recovered by centrifugation at 800 rpm for 10 min. Cells from the third to twelfth passage were seeded at a density of 80,000 cells/well in 96-well plates for the neuroprotection studies.
as §1, §2, §3, §4, §5

rat striatal slices = assay: Rat striatal slices exposed to rotenone: ROS production; type: cell-based; details: compound 10 µM, rotenone 10 µM, 4 h
Procedure: Three- to four-month-old Sprague–Dawley rats were decapitated, the brain was removed, and the two brain hemispheres were separated. Each hemisphere was then cut into 300-µm coronal slices using a McIlwain Tissue Chopper (Cavey Laboratory Engineering, Surrey, UK) and separated in a previously oxygenated (95% O2 and 5% CO2) ice-cold Krebs’s dissection buffer (120 mM of NaCl; 2 mM of KCl; 26 mM of NaHCO3; 1.18 mM of KH2PO4; 10 mM of MgSO4; 0.5 mM of CaCl2; 11 mM of glucose; and 200 mM sucrose at pH 7.4) using a Leica SE6 microscope (Leica, Madrid, Spain). Striatum-containing slices were selected and immediately incubated for stabilization in dissection buffer without sucrose, bubbled with 95% O2 and 5% CO2 for 45 min at 34 °C, allowing slices to recover from slicing injury. […] Finally, cell death and the ROS production were measured.
ROS quantification was performed using the fluorescent probe 2,7′-dichlorodihydrofluorescein diacetate (H2DCFDA, λEx/Em = 495/529 nm; Thermo Fisher, Madrid, Spain). Cell death quantification was performed using the fluorescent probe propidium iodide (PI, λEx/Em = 535/617 nm; Thermo Fisher, Madrid, Spain). […] Fluorescence from striatum slices was then recorded for H2DCFDA (λEx/Em = 495/529 nm), PI (λEx/Em = 535/617 nm), and Hoechst (λEx/Em = 350/461 nm), in an inverted Nikon Eclipse T2000-U microscope (Nikon, Tokyo, Japan). […]

[5] = Blood–brain barrier permeation assay (PAMPA); details: BBB permeability class from Pe
[6] = tested on: blood-brain barrier (passive diffusion); assay: Blood–brain barrier permeation assay (PAMPA); details: PAMPA, pH 7.4
MAO-B [7] = details: read-out: IC50 for MAO-B; cited from earlier work
MAO-A = details: read-out: IC50 for MAO-A; cited from earlier work
MAO-B [8] = biological target: T1, MAO-B (Homo sapiens, UniProt P27338); assay: MAO-B reversibility assay (pre-incubation times); type: biochemical; details: 0, 15, 30 min pre-incubation at […] IC50
T1 construct: purchased Sigma–Aldrich
T1 sequence (P27338 1-520): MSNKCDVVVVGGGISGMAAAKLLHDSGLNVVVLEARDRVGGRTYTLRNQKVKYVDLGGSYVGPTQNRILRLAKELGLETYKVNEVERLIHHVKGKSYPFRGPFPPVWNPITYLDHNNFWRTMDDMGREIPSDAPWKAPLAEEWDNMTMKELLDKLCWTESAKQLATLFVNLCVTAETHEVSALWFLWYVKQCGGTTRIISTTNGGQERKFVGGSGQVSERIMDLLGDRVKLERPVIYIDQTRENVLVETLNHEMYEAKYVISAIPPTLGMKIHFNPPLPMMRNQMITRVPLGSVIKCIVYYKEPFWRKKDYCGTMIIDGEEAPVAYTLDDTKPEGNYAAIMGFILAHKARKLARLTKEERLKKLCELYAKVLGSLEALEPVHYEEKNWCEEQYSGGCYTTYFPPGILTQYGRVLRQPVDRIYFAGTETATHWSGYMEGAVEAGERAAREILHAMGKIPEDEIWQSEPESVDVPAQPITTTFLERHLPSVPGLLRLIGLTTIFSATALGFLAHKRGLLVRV

[9] = Oxygen radical absorbance capacity (ORAC) assay; details: Trolox equivalents, AAPH, fluorescein
Procedure: The ORAC test was performed to evaluate the oxygen free radical scavenger capacity of the compounds. […] Compounds at desired concentrations (0.03, 0.1, 0.3, 1, 3, and 10 µM) were diluted in phosphate-buffered saline (PBS; 10 mM, pH 7.4) at 37 °C and placed in a 96 black flat bottom well plate. […] A fluorescence measurement was done first to determine the basal signal. Then, 25 µL of 2, 2′-azobis-amidinopropane dihydrochloride (AAPH) (12 mM final concentration) was quickly added. All samples were measured in duplicates in three different experiments. […] Results were expressed in terms of Trolox equivalents (T.eq.), obtained by plotting net AUC versus compound concentration, then performing linear regression and normalizing slopes of the compounds considering Trolox as reference.

[10] = tested on: nitrite production in mixed primary glial cultures; details: read-out: EC50 Nitrite Reduction; positive control; cited from earlier work

Structure (SMILES): C(=CCc1ccccc1)Cc1ccccc1 [1,4-diphenyl-2-butene]
- Ki (MAO-B [1]): 35 µM

Structure (SMILES): COc1ccc2[nH]cc(CCNC(C)=O)c2c1 [Melatonin, reference compound]
- LD50 (µM) Mixed primary glial cultures [2]: > 30 µM
- 6-OHDA Protection (%) (SH-SY5Y cells [3]): 88.8%
- IL-1β Levels % Reduction (10 μM) (IL-1β): 31.6 ± 7.00%
- R/O (30/10 µM) Protection (%) (SH-SY5Y cells [4]): 22.3%
- LD50 (µM) AREc32 (AREc32; human): > 30 µM
- EC50 (NRF2): > 30 µM
- LD50 (µM) SH-SY5Y (SH-SY5Y): > 100 µM
- ROS levels (H2DCFDA), rotenone model (rat striatal slices): reduced

Structure (SMILES): C#CCN[C@@H]1CCc2ccccc21 [Rasagiline, reference compound]
- 6-OHDA Protection (%) (SH-SY5Y cells [3]): 77.0%
- PAMPA Prediction [5]: CNS + (CNS + (high BBB permeability): Pe (10^−6 cm s^−1) > 4.0)
- Papp at 4 h, 100 µM [6]: 23.5 ± 4.2 ×10⁻⁶ cm/s
- R/O (30/10 µM) Protection (%) (SH-SY5Y cells [4]): 28.9%
- LD50 (µM) AREc32 (AREc32; MTT reduction): > 30 µM
- MAO-B inhibition reversibility (MAO-B [8]): Irreversible
- ORAC (T. eq.) [9]: 0.04 ± 0.02 T. eq.
- ORAC (T. eq.) ([9]; listed as rasagiline): no effect

Structure (SMILES): C[S+]([O-])CCCCN=C=S (centres unmarked) [Sulforaphane]
- EC50 [10]: 1400 ± 300 nM
